Results: patent US20040224958A1, “Pyridopyrimidinone derivatives for treatment of neurodegenerative disease” (priority 2000, published 2004)
Read-outs that look alike come from different tables or passages of the source.

Columns and labels:
Cdk5/p25 = Cdk5/p25 (Homo sapiens, UniProt Q00535); test: Cyclin-Dependent Kinase 5 High Throughput Screening (cdk5-HTS) Assay; assay type: biochemical; conditions: high throughput screen
Outline: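 Cdk5/p25 (1.0 μg/mL) phosphorylates GST-RbCOOH (20 μg/mL) in 50 mM Tris pH 7.4 with 10 mM MgCl2 and 20 μM ATP spiked with [γ33P]ATP, 30 min at room temperature. After EDTA stop, substrate captured on glutathione-coated plates; 33P incorporation counted by scintillation; IC50 determined.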

cdk4/D = cdk4/D (Homo sapiens, UniProt P11802); test: Cyclin-Dependent Kinase 4 (cdk4) Assay; assay type: biochemical; conditions: read-out: cdk4/D IC50
Chain of cdk4/D (P11802 whole entry): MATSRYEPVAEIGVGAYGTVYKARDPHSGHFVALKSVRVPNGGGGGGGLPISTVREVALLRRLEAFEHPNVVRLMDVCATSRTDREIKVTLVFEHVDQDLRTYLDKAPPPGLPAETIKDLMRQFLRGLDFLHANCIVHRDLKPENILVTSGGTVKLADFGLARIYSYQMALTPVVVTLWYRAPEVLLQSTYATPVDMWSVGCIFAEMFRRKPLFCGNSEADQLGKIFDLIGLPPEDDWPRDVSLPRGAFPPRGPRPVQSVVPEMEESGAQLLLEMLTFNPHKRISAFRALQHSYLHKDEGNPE
Chain of cdk4/D (P24385 whole entry, further chain): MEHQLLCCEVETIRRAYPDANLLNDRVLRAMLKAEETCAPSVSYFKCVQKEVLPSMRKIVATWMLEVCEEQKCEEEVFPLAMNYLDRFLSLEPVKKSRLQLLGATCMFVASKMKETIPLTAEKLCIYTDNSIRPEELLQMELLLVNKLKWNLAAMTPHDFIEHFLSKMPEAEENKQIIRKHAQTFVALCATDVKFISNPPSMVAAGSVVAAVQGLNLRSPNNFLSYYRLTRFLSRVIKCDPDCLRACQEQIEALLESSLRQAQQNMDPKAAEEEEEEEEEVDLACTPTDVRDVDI

cdk2/cyclinE = cdk2/cyclinE (Homo sapiens, UniProt P24941); test: Cyclin-Dependent Kinase Assay cdk2/cyclinE
Description: (§1) Cyclin-Dependent Kinase Assays (cdk2/cyclinE, cdk2/cyclinA, cdc2/cyclinB)
(§2) All components except the ATP were added to the wells, and the plate was placed on a plate mixer for 2 minutes. The reaction was begun by addition of [^32P]ATP, and the plate was incubated at 25° C. for 15 minutes. The reaction was terminated by addition of 0.1 mL of 20% TCA. The plate was kept at 4° C. for at least 1 hour to allow the substrate to precipitate. The wells were then washed five times with 0.2 mL of 10% TCA and ^32p incorporation determined with a beta plate counter (Wallac Inc., Gaithersburg, Md.).

cdk2/cyclinA = cdk2/cyclinA (Homo sapiens, UniProt P24941); test: Cyclin-Dependent Kinase Assay cdk2/cyclinA
cdc2/cyclinB = cdc2/cyclinB (Homo sapiens, UniProt P06493); test: Cyclin-Dependent Kinase Assay cdc2/cyclinB
Chain of cdc2/cyclinB (P06493 whole entry): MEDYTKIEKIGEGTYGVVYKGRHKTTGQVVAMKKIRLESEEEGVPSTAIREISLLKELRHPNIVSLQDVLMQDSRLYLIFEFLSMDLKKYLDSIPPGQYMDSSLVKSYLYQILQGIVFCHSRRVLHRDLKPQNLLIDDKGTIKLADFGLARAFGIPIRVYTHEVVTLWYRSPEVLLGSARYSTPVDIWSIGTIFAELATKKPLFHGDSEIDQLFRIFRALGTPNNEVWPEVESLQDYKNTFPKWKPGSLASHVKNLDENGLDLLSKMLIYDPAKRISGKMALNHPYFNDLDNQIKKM
Chain of cdc2/cyclinB (P14635 whole entry, further chain): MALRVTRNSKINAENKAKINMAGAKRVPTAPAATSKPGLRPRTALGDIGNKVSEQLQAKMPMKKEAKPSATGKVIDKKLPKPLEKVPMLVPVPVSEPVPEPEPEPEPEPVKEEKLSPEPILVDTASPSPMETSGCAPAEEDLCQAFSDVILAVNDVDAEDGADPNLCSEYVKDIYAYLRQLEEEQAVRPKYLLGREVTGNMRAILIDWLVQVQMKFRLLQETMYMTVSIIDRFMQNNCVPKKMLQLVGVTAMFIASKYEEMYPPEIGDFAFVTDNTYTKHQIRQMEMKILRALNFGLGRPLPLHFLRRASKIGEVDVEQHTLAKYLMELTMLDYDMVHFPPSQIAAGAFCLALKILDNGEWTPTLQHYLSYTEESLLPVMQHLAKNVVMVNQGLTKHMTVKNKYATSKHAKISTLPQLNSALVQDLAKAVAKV
Description: as §1, §2

Row | SMILES | IC50 (Cdk5/p25) [nM] | IC50 (cdk4/D) [nM] | IC50 (cdk2/cyclinE; cdk2/E IC50) [nM] | IC50 (cdk2/cyclinA; cdk2/A IC50) [nM] | IC50 (cdc2/cyclinB) [nM] | IC50 (cdk2/cyclinE; read-out: cdk2/E IC50) [nM] | IC50 (cdk2/cyclinA; read-out: cdk2/A IC50) [nM] | IC50 (cdc2/cyclinB; read-out: cdk1/B IC50) [nM]
1 | CCCn1c(=O)ccc2cnc(Nc3ccc(OC)c(OC)c3)nc21 [Example 331, 2-(3,4-Dimethoxy-phenylamino)-8-propyl-8H-pyrido[2,3-d]pyrimidin-7-one] | 160 | 2000 | 950 | 875 | 415 | – | – | –
2 | CCCn1c(=O)ccc2cnc(Nc3ccc(F)cc3)nc21 [Example 332, 2-(4-Fluoro-phenylamino)-8-propyl-8H-pyrido[2,3-d]pyrimidin-7-one] | 590 | 2050 | 417 | 1310 | 1050 | – | – | –
3 | CCCn1c(=O)ccc2cnc(Nc3cc([N+](=O)[O-])ccc3F)nc21 [Example 333, 2-(2-Fluoro-5-nitro-phenylamino)-8-propyl-8H-pyrido[2,3-d]pyrimidin-7-one] | 260 | 670 | 340 | 1700 | 1300 | – | – | –
4 | CCCn1c(=O)ccc2cnc(Nc3ccc(F)c(C(F)(F)F)c3)nc21 [Example 335, 2-(4-Fluoro-3-trifluoromethyl-phenylamino)-8-propyl-8H-pyrido[2,3-d]pyrimidin-7-one] | 340 | 1600 | 160 | 1100 | 250 | – | – | –
5 | CCCn1c(=O)ccc2cnc(Nc3ccc(OC)c(O)c3)nc21 [Example 336, 2-(3-Hydroxy-4-methoxy-phenylamino)-8-propyl-8H-pyrido[2,3-d]pyrimidin-7-one] | 74 | 2400 | 120 | 1700 | 320 | – | – | –
6 | CCCn1c(=O)ccc2cnc(Nc3ccc(F)c(C)c3)nc21 [Example 337, 2-(4-Fluoro-3-methyl-phenylamino)-8-propyl-8H-pyrido[2,3-d]pyrimidin-7-one] | 150 | 430 | 25 | 100 | 150 | – | – | –
7 | CCCn1c(=O)ccc2cnc(Nc3ccc(OC)c(F)c3)nc21 [Example 338, 2-(3-Fluoro-4-methoxy-phenylamino)-8-propyl-8H-pyrido[2,3-d]pyrimidin-7-one] | 48 | 270 | 170 | 340 | 570 | – | – | –
8 | CCCn1c(=O)ccc2cnc(Nc3ccc(C#N)c(NC(C)=O)c3)nc21 [Example 340, N-[2-Cyano-5-(7-oxo-8-propyl-7,8-dihydro-pyrido[2,3-d]pyrimidin-2-ylamino)-phenyl]-acetamide] | 170 | 310 | 350 | 960 | 1300 | – | – | –
9 | CCCn1c(=O)ccc2cnc(Nc3ccc(Br)c(Cl)c3)nc21 [Example 341, 2-(4-Bromo-3-chloro-phenylamino)-8-propyl-8H-pyrido[2,3-d]pyrimidin-7-one] | 92 | 420 | 280 | 890 | 520 | – | – | –
10 | CCCn1c(=O)ccc2cnc(Nc3ccc(I)c(Cl)c3)nc21 [Example 344, 2-(3-Chloro-4-iodo-phenylamino)-8-propyl-8H-pyrido[2,3-d]pyrimidin-7-one] | 46 | 370 | 470 | 990 | 360 | – | – | –
11 | CCCn1c(=O)ccc2cnc(Nc3ccc(N(C)C(C)=O)cc3)nc21 [Example 345, N-Methyl-N-[4-(7-oxo-8-propyl-7,8-dihydro-pyrido[2,3-d]pyrimidin-2-ylamino)-phenyl]-acetamide] | 160 | 160 | 430 | 830 | 590 | – | – | –
12 | CCCn1c(=O)ccc2cnc(Nc3cc(C)cc(C)c3)nc21 [Example 346, 2-(3,5-Dimethyl-phenylamino)-8-propyl-8H-pyrido[2,3-d]pyrimidin-7-one] | 29 | 310 | 260 | 450 | 61 | – | – | –
13 | CCCn1c(=O)ccc2cnc(Nc3ccc(C)c(Cl)c3)nc21 [Example 347, 2-(3-Chloro-4-methyl-phenylamino)-8-propyl-8H-pyrido[2,3-d]pyrimidin-7-one] | 35 | 58 | 120 | 580 | 140 | – | – | –
14 | CCCn1c(=O)ccc2cnc(Nc3cccc(S(N)(=O)=O)c3)nc21 [Example 348, 3-(7-Oxo-8-propyl-7,8-dihydro-pyrido[2,3-d]pyrimidin-2-ylamino)-benzenesulfonamide] | 13 | 14 | 49 | 170 | 62 | – | – | –
15 | CCCn1c(=O)ccc2cnc(Nc3ccc(F)c([N+](=O)[O-])c3)nc21 [Example 351, 2-(4-Fluoro-3-nitro-phenylamino)-8-propyl-8H-pyrido[2,3-d]pyrimidin-7-one] | 310 | 1200 | 560 | 1300 | 700 | – | – | –
16 | CCCn1c(=O)ccc2cnc(Nc3ccc(O)c(C)c3)nc21 [Example 354, 2-(4-Hydroxy-3-methyl-phenylamino)-8-propyl-8H-pyrido[2,3-d]pyrimidin-7-one] | 770 | 910 | 1200 | 1100 | 1600 | – | – | –
17 | CCCn1c(=O)ccc2cnc(Nc3ccc4c(c3)C(C)C(C)N4)nc21 (stereo not shown) [Example 356, 2-(2,3-Dimethyl-2,3-dihydro-1H-indol-5-ylamino)-8-propyl-8H-pyrido[2,3-d]pyrimidin-7-one] | 61 | 290 | 510 | 470 | 410 | – | – | –
18 | CCCn1c(=O)ccc2cnc(Nc3ccc4c(c3)CCN4)nc21 [Example 357, 2-(2,3-Dihydro-1H-indol-5-ylamino)-8-propyl-8H-pyrido[2,3-d]pyrimidin-7-one] | 290 | 360 | 700 | 1600 | 2100 | – | – | –
19 | CCCn1c(=O)ccc2cnc(Nc3ccc4cn[nH]c4c3)nc21 [Example 358, 2-(1H-Indazol-6-ylamino)-8-propyl-8H-pyrido[2,3-d]pyrimidin-7-one] | 90 | 300 | 180 | 83 | 160 | – | – | –
20 | CCCn1c(=O)ccc2cnc(Nc3cc(F)c(F)c(F)c3)nc21 [Example 359, 8-Propyl-2-(3,4,5-trifluoro-phenylamino)-8H-pyrido[2,3-d]pyrimidin-7-one] | 180 | 1800 | 450 | 430 | 390 | – | – | –
21 | CCCn1c(=O)ccc2cnc(Nc3ccc(Br)c(C)c3)nc21 [Example 360, 2-(4-Bromo-3-methyl-phenylamino)-8-propyl-8H-pyrido[2,3-d]pyrimidin-7-one] | 86 | 390 | 990 | 1000 | 340 | – | – | –
22 | CCCn1c(=O)ccc2cnc(Nc3ccc(C(F)(F)F)cc3)nc21 [Example 361, 8-Propyl-2-(4-trifluoromethyl-phenylamino)-8H-pyrido[2,3-d]pyrimidin-7-one] | 150 | 350 | 440 | 310 | 180 | – | – | –
23 | CCCCn1c(=O)ccc2cnc(Nc3ccccc3)nc21 [Example 364, 8-Butyl-2-phenylamino-8H-pyrido[2,3-d]pyrimidin-7-one] | 87.5 | 240 | 60.3 | 255 | 200 | – | – | –
24 | CCCCn1c(=O)ccc2cnc(Nc3ccc(OC)c(Cl)c3)nc21 [Example 365, 8-Butyl-2-(3-chloro-4-methoxy-phenylamino)-8H-pyrido[2,3-d]pyrimidin-7-one] | 59.8 | 475 | 122 | 446 | 204 | – | – | –
25 | CCCCn1c(=O)ccc2cnc(Nc3ccc(F)cc3F)nc21 [Example 368, 8-Butyl-2-(2,4-difluoro-phenylamino)-8H-pyrido[2,3-d]pyrimidin-7-one] | 723 | 3010 | 836 | 3060 | 1360 | – | – | –
26 | CCCn1c(=O)ccc2cnc(Nc3ccc(F)c(Cl)c3)nc21 [Example 369, 2-(3-Chloro-4-fluoro-phenylamino)-8-propyl-8H-pyrido[2,3-d]pyrimidin-7-one] | 85.3 | 526 | 71.9 | 287 | 129 | – | – | –
27 | CCCCn1c(=O)ccc2cnc(Nc3ccc(N(C)C(C)=O)cc3)nc21 [Example 370, N-[4-(8-Butyl-7-oxo-7,8-dihydro-pyrido[2,3-d]pyrimidin-2-ylamino)-phenyl]-N-methyl-acetamide] | 917 | 1140 | 1280 | 610 | 808 | – | – | –
28 | CCCCn1c(=O)ccc2cnc(Nc3ccc(C(N)=O)cc3)nc21 [Example 371, 4-(S-Butyl-7-oxo-7,8-dihydro-pyrido[2,3-d]pyrimidin-2-ylamino)-benzamide] | 234 | 331 | – | – | – | 286 | 699 | 372
29 | CCCCn1c(=O)ccc2cnc(Nc3cccc(C(F)(F)F)c3)nc21 [Example 373, 8-Butyl-2-(3-trifluoromethyl-phenylamino)-8H-pyrido[2,3-d]pyrimidin-7-one] | 214 | 2150 | 208 | 1150 | 430 | – | – | –
